# According to patent US8143227B2, “Azithromycin for treatment of skin disorders” (priority 2008, dated 2012):
# Legend:
# P. acnes = conditions: concentration that inhibits 90% of growth of the organism; Neu 1991; cited from earlier work
# [1] = Azithromycin levels in plasma; conditions: for average azithromycin plasma level at steady state: steady state conditions; for AUC / AUC(0-t) / Cmax: human, plasma, po
# Description: Plasma levels of azithromycin were determined as follows. Thirty-nine patients were randomized into one of three treatment groups. Each patient received 40 mg (n=13), 80 mg (n=11), or 120 mg (n=15) of oral azithromycin daily. After the initial dose on day 0, a second dose was not administered until 72 hours later, so as to permit measurement of plasma levels based on a single dose and determination of pharmacokinetic parameters. Blood samples from each patient were taken at times equal to 0 (before dosing), 1, 2, 3, 4, 6, 8, 24, 48, and 72 hours after the initial oral dose. Following 72 hours, each patient received azithromycin daily for the remainder of six weeks (42 days). Blood samples were also taken at times equal to 0 hours (before dosing) and 3 hours after dosing on day 21, and at times equal to 0, 1, 2, 3, 4, 6, 8, and 24 hours following the last dose given on day 42. Plasma samples obtained from the blood samples were stored at −20° C. or lower after collection until processing and analysis.
# The amount of azithromycin in plasma was quantified using a validated high pressure liquid chromatographic assay with mass spectroscopy detection. Standards and samples were treated, by pipet addition, with 10.0 microliter of 1:1 acetonitrile/water. The standards and samples were then treated, by pipet addition, with 10.0 microliter of an Azaerythromycin A internal standard solution, followed by the addition of 2.0 mL of the mobile phase, which contained a 250:150:100:0.5:0.1 mixture of ethyl acetate, methanol, acetonitrile, formic acid and morpholine. After tightening Teflon caps onto the extraction jars containing the treated standards and samples, the jars were rotated for 2 hours at 1 rps. Next, 0.20 mL aliquots were removed from each jar and transferred to HPLC autosampler vials, and the vials capped and placed in the autosampler tray for LC-MS-MS analysis. A 5 microliter aliquot was injected from each vial into a suitable high pressure liquid chromatograph (HPLC) with suitable mass spectrophotometry-mass spectrometery detection, such as a Sciex API 3000 LC-MS-MS (GenTech Scientific, Inc., Arcade, N.Y.) with heated nebulizer source. The column used was PVA-Sil, 5 micron, 4.0×50 mm cartridge (Waters Corporation, Milford, Mass.). The flow rate was 1 ml/minute. To determine the amount of azithromycin, the peak area of the m/z 750→592 azithromycin product ion was measured against the peak area of the m/z 736→578 azaerythromycin A internal standard product ion.
# Plasma azithromycin concentrations were tabulated for each of the subjects for each dose group 40 mg/day, 80 mg/day, and 120 mg/day, respectively. The pharmacokinetic evaluation was based on individual plasma concentration-time data of azithromycin and was performed using model-independent analysis methods within WinNonlin™ version 5.0.1 (Pharsight Corporation, Mountain View, Calif.). […] Cmax, the maximum plasma concentration, was obtained directly from the concentration-time data. AUClast, the area under the plasma concentration-time curve from time 0 to time t (the time of last quantifiable plasma concentration), was calculated using the linear trapezoidal rule from predose to the last quantifiable plasma concentration. AUC24, the area under the plasma concentration-time curve from time 0 to time t=24 hours, was calculated in a manner similar to the calculation for AUClast except from predose to 24 hours.
# moderate to severe acne = test: Efficacy against acne (lesion counts), 40/80/120 mg per day; assay type: in vivo, human
# Description: The subjects of Example 1 were evaluated for efficacy of each dosage (40 mg, 80 mg, or 120 mg per day) in treating moderate to severe acne following treatment for 6 weeks. Before starting the treatment protocol, the number of facial non-inflammatory lesions (open and closed comedones), inflammatory lesions (papules, pustules, and nodules), and nodules were counted. The numbers of these lesions were counted again at day 21 of treatment and at day 42. The % decrease from Day 0 was calculated as the mean of the differences for each of the parameters (non-inflammatory lesions, inflammatory lesion and nodules) for each individual subject on Day 21 and Day 42. The results, including average lesion counts and efficacy assessment by percent decrease in lesion counts, are shown for the 40 mg, 80 mg, and 120 mg group, respectively, in Tables 4, 5, and 6.
# acne = conditions: Kus 2005, cited from earlier work
# [2] = 40 mg/day for 6 weeks, Day 0 (before treatment)
# [3] = 80 mg/day for 6 weeks, Day 0 (before treatment)
# [4] = 120 mg/day for 6 weeks, Day 0 (before treatment)
smiles,measurement,setting,value
"CC[C@H]1OC(=O)[C@H](C)[C@@H](O[C@H]2C[C@@](C)(OC)[C@@H](O)[C@H](C)O2)[C@H](C)[C@@H](O[C@@H]2O[C@H](C)C[C@H](N(C)C)[C@H]2O)[C@](C)(O)C[C@@H](C)CN(C)[C@H](C)[C@@H](O)[C@]1(C)O [Azithromycin, 9-deoxo-9a-aza-9a-methyl-9a-homoerythromycin A]",MIC against P. acnes,P. acnes,0.15 µg/mL
same,average maximum azithromycin plasma level,"[1]; 40 mg/day group, after administration on day 42",about 16 ng/ml
same,average maximum azithromycin plasma level,"[1]; 40 mg/day group, after initial dose",about 15 ng/ml
same,average azithromycin plasma level at steady state,[1]; 40 mg/day group,about 4 ng/ml
same,average maximum azithromycin plasma level,"[1]; 80 mg/day group, after administration on day 42",~54 ng/mL
same,average maximum azithromycin plasma level,"[1]; 80 mg/day group, after initial dose",~59 ng/mL
same,average azithromycin plasma level at steady state,[1]; 80 mg/day group,~10 ng/mL
same,average maximum azithromycin plasma level,"[1]; 120 mg/day group, after administration on day 42",~68 ng/mL
same,average maximum azithromycin plasma level,"[1]; 120 mg/day group, after initial dose",~45 ng/mL
same,average azithromycin plasma level at steady state,[1]; 120 mg/day group,~22 ng/mL
same,maximum plasma concentration compared with MIC,"[1]; day 0 and day 42, all dosages tested",less than the MIC of azithromycin for P. acnes
same,AUC,[1]; 40 mg,44.7 ng·h/mL
same,AUC(0-t),[1]; 40 mg,73.4 ng·h/mL
same,Cmax,[1]; 40 mg,7.08 ng/mL
same,AUC,[1]; 40 mg/day,132 ng·h/mL
same,Cmax,[1]; 40 mg/day,13.8 ng/mL
same,AUC,[1]; 80 mg,294 ng·h/mL
same,AUC(0-t),[1]; 80 mg,456 ng·h/mL
same,Cmax,[1]; 80 mg,60.3 ng/mL
same,AUC,[1]; 80 mg/day,528 ng·h/mL
same,Cmax,[1]; 80 mg/day,53.9 ng/mL
same,AUC,[1]; 120 mg,293 ng·h/mL
same,AUC(0-t),[1]; 120 mg,433 ng·h/mL
same,Cmax,[1]; 120 mg,57.9 ng/mL
same,AUC,[1]; 120 mg/day,752 ng·h/mL
same,Cmax,[1]; 120 mg/day,92.9 ng/mL
same,time of peak average plasma level,"[1]; post administration of initial dose, each treatment group",3 h
same,Inflammatory lesions (average count),moderate to severe acne; [2],30.1
same,Nodules (average count),moderate to severe acne; [2],5.2
same,Non-inflammatory lesions (average count),moderate to severe acne; [2],36.5
same,Inflammatory lesions % Decrease from Day 0,"moderate to severe acne; 40 mg/day for 6 weeks, Day 21",51.5%
same,Inflammatory lesions (average count),"moderate to severe acne; 40 mg/day for 6 weeks, Day 21",14.4
same,Nodules % Decrease from Day 0,"moderate to severe acne; 40 mg/day for 6 weeks, Day 21",62.4%
same,Nodules (average count),"moderate to severe acne; 40 mg/day for 6 weeks, Day 21",2.2
same,Non-inflammatory lesions % Decrease from Day 0,"moderate to severe acne; 40 mg/day for 6 weeks, Day 21",30.4%
same,Non-inflammatory lesions (average count),"moderate to severe acne; 40 mg/day for 6 weeks, Day 21",23.9
same,Inflammatory lesions % Decrease from Day 0,"moderate to severe acne; 40 mg/day for 6 weeks, Day 42",54.2%
same,Inflammatory lesions (average count),"moderate to severe acne; 40 mg/day for 6 weeks, Day 42",13.8
same,Nodules % Decrease from Day 0,"moderate to severe acne; 40 mg/day for 6 weeks, Day 42",82.2%
same,Nodules (average count),"moderate to severe acne; 40 mg/day for 6 weeks, Day 42",1.2
same,Non-inflammatory lesions % Decrease from Day 0,"moderate to severe acne; 40 mg/day for 6 weeks, Day 42",38.9%
same,Non-inflammatory lesions (average count),"moderate to severe acne; 40 mg/day for 6 weeks, Day 42",21.5
same,Inflammatory lesions (average count),moderate to severe acne; [3],37.0
same,Nodules (average count),moderate to severe acne; [3],5.5
same,Non-inflammatory lesions (average count),moderate to severe acne; [3],38.7
same,Inflammatory lesions % Decrease from Day 0,"moderate to severe acne; 80 mg/day for 6 weeks, Day 21",44.7%
same,Inflammatory lesions (average count),"moderate to severe acne; 80 mg/day for 6 weeks, Day 21",19.8
same,Nodules % Decrease from Day 0,"moderate to severe acne; 80 mg/day for 6 weeks, Day 21",72.8%
same,Nodules (average count),"moderate to severe acne; 80 mg/day for 6 weeks, Day 21",1.5
same,Non-inflammatory lesions % Decrease from Day 0,"moderate to severe acne; 80 mg/day for 6 weeks, Day 21",34.7%
same,Non-inflammatory lesions (average count),"moderate to severe acne; 80 mg/day for 6 weeks, Day 21",24.9
same,Inflammatory lesions % Decrease from Day 0,"moderate to severe acne; 80 mg/day for 6 weeks, Day 42",53.7%
same,Inflammatory lesions (average count),"moderate to severe acne; 80 mg/day for 6 weeks, Day 42",17.0
same,Nodules % Decrease from Day 0,"moderate to severe acne; 80 mg/day for 6 weeks, Day 42",74.2%
same,Nodules (average count),"moderate to severe acne; 80 mg/day for 6 weeks, Day 42",1.3
same,Non-inflammatory lesions % Decrease from Day 0,"moderate to severe acne; 80 mg/day for 6 weeks, Day 42",24.7%
same,Non-inflammatory lesions (average count),"moderate to severe acne; 80 mg/day for 6 weeks, Day 42",29.3
same,Inflammatory lesions (average count),moderate to severe acne; [4],31.6
same,Nodules (average count),moderate to severe acne; [4],4.7
same,Non-inflammatory lesions (average count),moderate to severe acne; [4],37.7
same,Inflammatory lesions % Decrease from Day 0,"moderate to severe acne; 120 mg/day for 6 weeks, Day 21",51.9%
same,Inflammatory lesions (average count),"moderate to severe acne; 120 mg/day for 6 weeks, Day 21",15.6
same,Nodules % Decrease from Day 0,"moderate to severe acne; 120 mg/day for 6 weeks, Day 21",78.6%
same,Nodules (average count),"moderate to severe acne; 120 mg/day for 6 weeks, Day 21",1.0
same,Non-inflammatory lesions % Decrease from Day 0,"moderate to severe acne; 120 mg/day for 6 weeks, Day 21",28.1%
same,Non-inflammatory lesions (average count),"moderate to severe acne; 120 mg/day for 6 weeks, Day 21",27.8
same,Inflammatory lesions % Decrease from Day 0,"moderate to severe acne; 120 mg/day for 6 weeks, Day 42",52.9%
same,Inflammatory lesions (average count),"moderate to severe acne; 120 mg/day for 6 weeks, Day 42",14.8
same,Nodules % Decrease from Day 0,"moderate to severe acne; 120 mg/day for 6 weeks, Day 42",73.7%
same,Nodules (average count),"moderate to severe acne; 120 mg/day for 6 weeks, Day 42",1.1
same,Non-inflammatory lesions % Decrease from Day 0,"moderate to severe acne; 120 mg/day for 6 weeks, Day 42",38.9%
same,Non-inflammatory lesions (average count),"moderate to severe acne; 120 mg/day for 6 weeks, Day 42",23.2
same,number of inflammatory acne lesions,"moderate to severe acne; any of 40, 80, or 120 mg per day, at 21 days and at 42 days",marked decrease
same,number of facial nodules,"moderate to severe acne; any of 40, 80, or 120 mg, at both 21 and 42 days",marked decrease
same,response of non-inflammatory acne lesions,"moderate to severe acne; daily treatment at each dosage level tested, 40, 80, or 120 mg",responded favorably
same,resolution of existing nodules,"moderate to severe acne; examination at 21 days after initiation of treatment, daily administration",Complete resolution of existing nodules in several subjects
same,efficacy in the treatment of acne,"acne; 500 mg 3, then 2 consecutive days per week, then once weekly, 4 weeks each",as effective as doxycycline
same,subjects who left the study due to gastrointestinal side effects,acne; of 25 subjects administered azithromycin,two
